Laboratory results as given in patent US8975015B2, “Antimicrobial compounds” (priority 2009, dated 2015).
In brackets after ≈: the same amount, converted by molar mass. Read-outs that look alike come from different tables or passages of the source.

Tests used:
[1] = test system: Mycobacterium tuberculosis (replicating TB); experiment: microbe, parasite or virus in culture; format: cell-based; conditions: Mycobacterium tuberculosis, replicating TB, read-out: MABA MIC
non-replicating TB = experiment: microbe, parasite or virus in culture; format: cell-based, Mycobacterium tuberculosis; conditions: Mycobacterium tuberculosis, read-out: LORA MIC
M. smegmatis = experiment: MIC against M. smegmatis; format: cell-based; conditions: Mycolicibacterium smegmatis
[2] = format: in vitro ADME
Protocol: Compound P1 was also tested for stability in simulated intestinal fluid.

[3] = test system: cultured kidney cells from the African Green monkey; experiment: cells; format: cell-based; conditions: Chlorocebus sabaeus
[4] = mouse, microsomes
[5] = format: in vitro ADME; conditions: simulated gi fluid
[6] = human, microsomes

## O=C1C=Cc2nocc2/C1=C1/Nc2cc(Cl)ccc2C1=O [Example 2, 4-(6-chloro-3-oxoindolin-2-ylidene)benzo[c]isoxazol-5(4H)-one]
[1]; 8-0.03 μM test concentration
  MIC: 1.9 µM (≈ 0.568 µg/mL)
[1]; 32-0.2 μM test concentration
  MIC: 1.92 µM (≈ 0.573 µg/mL)

## O=C1C=Cc2nocc2/C1=C1/Nc2ccc(Cl)cc2C1=O [Example 3, 4-(5-chloro-3-oxoindolin-2-ylidene)benzo[c]isoxazol-5(4H)-one]
[1]; 8-0.03 μM test concentration
  MIC: 0.82 µM (≈ 0.245 µg/mL)
[1]; 32-0.2 μM test concentration
  MIC: 0.93 µM (≈ 0.278 µg/mL)
non-replicating TB; non-replicating TB
  MIC: 0.83 µM (≈ 0.248 µg/mL)

## O=C1C=Cc2nocc2/C1=C1/Nc2ccccc2C1=O [Example P1, 4-(3-oxoindolin-2-ylidene)benzo[c]isoxazol-5(4H)-one]
M. smegmatis
  MIC: 4.05 µg/mL (≈ 15.3 µM)
[2]; 0 min
  % P1: 100%
[2]; 5 min
  % P1: 99.9%
[2]; 25 min
  % P1: 95.4%
[2]; 45 min
  % P1: 97.7%
[2]; 65 min
  % P1: 92.1%
[2]; 85 min
  % P1: 86.2%
[2]; 125 min
  % P1: 86.8%
[2]; 145 min
  % P1: 83.5%
[3]; African Green monkey kidney cells
  IC50: > 50 µg/mL
[3]; Table 7, reaction products of T4MO isoform I100V with feedstock
  IC50: 20.8 µg/mL (≈ 78.8 µM)
[4]
  half-life: about 3 or 4 minutes
[5]; 0 h
  % P1 remaining: 100%
[5]; 5 min
  % P1 remaining: 99.2%
[5]; 25 min
  % P1 remaining: 99.6%
[5]; 0.75 h
  % P1 remaining: 101.3%
[5]; 65 min
  % P1 remaining: 99.6%
[5]; 80 min
  % P1 remaining: 97.0%
[5]; 100 min
  % P1 remaining: 101.6%
[5]; 2 h
  % P1 remaining: 102.1%
[5]; 140 min
  % P1 remaining: 100.2%
[1]
  MIC: 0.49 µM (≈ 0.129 µg/mL)
non-replicating TB; non-replicating TB
  MIC: 0.48 µM (≈ 0.127 µg/mL)
[6]
  half-life: about 7 or 8 minutes

## NNC(=O)c1ccncc1 [Isoniazid, reference compound]
[1]
  MIC: 0.56 µM (≈ 0.0768 µg/mL)
non-replicating TB
  MIC: > 128 µM

## CO[C@H]1/C=C/O[C@@]2(C)Oc3c(C)c(O)c4c(O)c(c(/C=N/N5CCN(C)CC5)c(O)c4c3C2=O)NC(=O)/C(C)=C\C=C\[C@H](C)[C@H](O)[C@@H](C)[C@@H](O)[C@@H](C)[C@H](OC(C)=O)[C@@H]1C [Rifampin, reference compound]
[1]
  MIC: 0.06 µM (≈ 0.0494 µg/mL)
non-replicating TB
  MIC: 1.34 µM (≈ 1.1 µg/mL)
